# Laboratory results taken from paper PMC3141655 (BMC Biochemistry, 2011).
# Assays:
# [1] = biological target: StOASS (O-acetylserine sulfhydrylase) (Salmonella typhimurium, UniProt P0A1E3); assay: PLP fluorescence titration of ligands with StOASS; assay type: binding; set-up: His tag (N); made in house; host or cells: E. coli BL21(DE3), pET28a(+); conditions: similar experimental conditions as cysteine/methionine titrations
# Protocol: Titrations of ligands with StOASS were examined by monitoring changes in the active site pyridoxal 5'phosphate (PLP) fluorescence of OASS using a Varian spectrofluorometer. The excitation and emission wavelengths for monitoring PLP signal change upon ligand binding were 412 nm and 507 nm respectively. All experiments were done at 23.0 ± 1°C. Slit widths were set to 5 nm for all experiments and PMT voltage was adjusted to get maximum signal for a given protein concentration. Initial readings of both the sample, Fsamp,0 and buffer, Fbuf,0 were taken, with F0 = Fsamp,0-Fbuf,0 defined as the initial fluorescence of the sample. The sample cuvette was then titrated with aliquots of ligands and mixed, equilibrated for 2-5 minutes before measurement. Data points from five such measurements were averaged to obtain Fave,i. The relative fluorescence quenching upon ligand binding is defined as Qobs,i = (F0-Fobs,i)/F0. All measurements were corrected for dilution, and inner filter effects.
# Binding of ligands to OASS was analyzed to obtain the equilibrium binding constant, Kobs = [PL]/[P]*[L], using a single or two independent site binding models (eqn 1)(1) [drawing 1]
# Where n, number of binding sites, Qobs, observed fluorescence quenching and Qmax, the maximum fluorescence quenching at saturation.
# [2] = substrate: CC(=O)OC[C@H](N)C(=O)O; assay: Steady state kinetic measurement of StOASS activity (ninhydrin-cysteine assay); assay type: biochemical, Salmonella typhimurium; conditions: other: 0.1M Hepes, pH 7.5, 30 °C, 2 mM Na2S, OAS 1-10 mM
# Protocol: Steady state kinetic measurement of StOASS activity in the reaction buffer (as in Fig S2).
# OASS activity was measured by monitoring the cysteine formation. Data were fitted to Michaelis-Menten equation using origin 5.0. The Km(OAS) was estimated to be 0.89 […]
# Enzyme assay: Assay is based on the specific reaction of ninhydrin with cysteine under strong acidic conditions and monitoring of modified cysteine (ninhydrin-cysteine adduct) at 560 nm. The reaction was allowed to proceed for 20 minutes (30 °C, linear phase) with varied concentrations of OAS (1- 10 mM, 2 mM Na2S) in the reaction buffer (0.1M Hepes, pH 7.5, 150 µl reaction volume). The reaction was terminated with 5% TFA and centrifuged at 11000 rpm for 2 min. 125 µl glacial acetic acid + 125 µl acidic ninhydrin reagent were added to 125 µl of supernatant. Samples were boiled for 10 min at 100°C and cooled to room temperature. 600 µl of chilled absolute ethanol was added to the mix and the absorbance at 560 nm was used for determining the amount of cysteine present in the sample. Cysteine liberated was determined from a standard curve plotted by using known concentrations of cysteine.
Molecule,binding to OASS when presented as amino acid [1],Km [2] [µM]
"CC[C@H](C)[C@H](N)C(=O)O [isoleucine, L-isoleucine]",does not bind OASS,–
"StOASS (Salmonella enterica subsp. enterica serovar Typhimurium str. LT2) (protein, His tag (N); made in house; host or cells: E. coli BL21(DE3), pET28a(+)) MSKIYEDNSLTIGHTPLVRLNRIGNGRILAKVESRNPSFSVKCRIGANMIWDAEKRGVLKPGVELVEPTSGNTGIALAYVAAARGYKLTLTMPETMSIERRKLLKALGANLVLTEGAKGMKGAIQKAEEIVASDPQKYLLLQQFSNPANPEIHEKTTGPEIWEDTDGQVDVFISGVGTGGTLTGVTRYIKGTKGKTDLITVAVEPTDSPVIAQALAGEEIKPGPHKIQGIGAGFIPGNLDLKLIDKVVGITNEEAISTARRLMEEEGILAGISSGAAVAAALKLQEDESFTNKNIVVILPSSGERYLSTALFADLFTEKELQQ",–,890
